This note sets out measurements from ChEMBL document CHEMBL1201862, “PubChem BioAssay data set” (2004).

One assay concerns the target T1, Aspartyl aminopeptidase (Plasmodium falciparum 3D7, UniProt Q8I2J3).
T1 sequence (Q8I2J3 whole entry): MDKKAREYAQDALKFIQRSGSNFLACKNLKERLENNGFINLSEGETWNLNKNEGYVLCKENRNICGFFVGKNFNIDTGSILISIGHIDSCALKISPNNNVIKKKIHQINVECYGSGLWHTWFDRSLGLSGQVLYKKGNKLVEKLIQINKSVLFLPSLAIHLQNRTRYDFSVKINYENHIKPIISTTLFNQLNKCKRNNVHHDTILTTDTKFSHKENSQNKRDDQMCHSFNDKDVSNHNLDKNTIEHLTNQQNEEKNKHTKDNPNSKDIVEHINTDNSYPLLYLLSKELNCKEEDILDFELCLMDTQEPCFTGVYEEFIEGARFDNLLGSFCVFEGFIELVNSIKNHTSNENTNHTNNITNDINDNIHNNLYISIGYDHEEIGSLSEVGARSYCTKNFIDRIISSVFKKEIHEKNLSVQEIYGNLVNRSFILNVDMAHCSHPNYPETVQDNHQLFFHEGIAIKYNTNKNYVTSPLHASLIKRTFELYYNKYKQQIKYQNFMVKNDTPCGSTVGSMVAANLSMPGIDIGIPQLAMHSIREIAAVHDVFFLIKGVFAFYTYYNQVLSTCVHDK
The experiment in a line: Counterscreen for inhibitors of M1 and M17 aminopeptidases: QFRET-based biochemical high throughput dose response assay for inhibitors of the Plasmodium falciparum M18 Aspartyl Aminopeptidase (PFM18AAP). [Related PubChem assays: 1619 (Screening assay (M17LAP inhibitors).), 1445 (Screening assay (M1AAP inhibitors).)]. (Counterscreens check selectivity or assay interference.)

The target in the next assay is T2, Protein RecA (Mycobacterium tuberculosis, UniProt P9WHJ3).
T2 sequence (P9WHJ3 whole entry): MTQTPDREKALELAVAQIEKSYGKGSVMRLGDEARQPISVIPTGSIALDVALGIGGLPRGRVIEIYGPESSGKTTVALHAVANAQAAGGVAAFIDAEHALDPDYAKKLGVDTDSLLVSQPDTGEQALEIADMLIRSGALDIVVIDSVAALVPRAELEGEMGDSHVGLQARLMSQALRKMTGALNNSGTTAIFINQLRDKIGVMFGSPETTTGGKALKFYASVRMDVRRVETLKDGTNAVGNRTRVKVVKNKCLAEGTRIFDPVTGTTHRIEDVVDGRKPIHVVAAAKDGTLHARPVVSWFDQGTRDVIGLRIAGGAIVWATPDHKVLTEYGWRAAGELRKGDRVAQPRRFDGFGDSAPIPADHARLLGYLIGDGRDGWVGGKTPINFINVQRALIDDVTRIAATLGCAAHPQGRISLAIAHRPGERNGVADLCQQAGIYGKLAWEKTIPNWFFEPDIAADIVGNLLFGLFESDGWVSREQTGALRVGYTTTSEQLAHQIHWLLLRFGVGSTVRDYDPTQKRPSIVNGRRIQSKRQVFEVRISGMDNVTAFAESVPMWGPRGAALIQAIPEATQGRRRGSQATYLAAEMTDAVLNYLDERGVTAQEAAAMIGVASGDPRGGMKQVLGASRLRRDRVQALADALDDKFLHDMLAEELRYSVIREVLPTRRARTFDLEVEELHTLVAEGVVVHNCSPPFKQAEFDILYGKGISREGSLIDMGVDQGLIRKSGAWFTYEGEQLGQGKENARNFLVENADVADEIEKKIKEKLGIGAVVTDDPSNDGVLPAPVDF
The experiment in a line: Fluorescence Cell-Free Homogeneous Dose Retest to Identify Inhibitors of RecA-Intein Splicing Activity. [Related pubchem assays (depositor defined):AID2097, AID2223, AID489010, AID492950]. It is filed as functional.

In another assay the target is T3, Leucine aminopeptidase (Plasmodium falciparum 3D7, UniProt Q8IL11).
T3 sequence (Q8IL11 whole entry): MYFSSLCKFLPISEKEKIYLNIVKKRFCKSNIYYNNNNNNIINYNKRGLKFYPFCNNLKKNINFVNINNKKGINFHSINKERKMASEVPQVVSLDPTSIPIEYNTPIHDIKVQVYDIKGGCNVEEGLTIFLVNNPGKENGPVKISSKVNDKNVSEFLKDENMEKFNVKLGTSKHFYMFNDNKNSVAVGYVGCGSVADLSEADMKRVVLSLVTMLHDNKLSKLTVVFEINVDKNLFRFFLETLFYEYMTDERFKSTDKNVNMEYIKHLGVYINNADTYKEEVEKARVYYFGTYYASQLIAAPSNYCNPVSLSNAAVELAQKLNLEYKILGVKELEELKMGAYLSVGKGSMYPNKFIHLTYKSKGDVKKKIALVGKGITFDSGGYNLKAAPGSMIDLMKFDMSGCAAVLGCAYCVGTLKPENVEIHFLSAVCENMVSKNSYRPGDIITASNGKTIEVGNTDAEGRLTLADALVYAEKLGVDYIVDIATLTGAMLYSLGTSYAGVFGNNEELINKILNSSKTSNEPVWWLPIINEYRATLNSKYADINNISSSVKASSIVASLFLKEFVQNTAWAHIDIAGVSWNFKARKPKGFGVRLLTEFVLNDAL
In words: P. falciparum M17LAP inhibitors, primary screen, biochemical, fluorogenic H-Leu-NHMec substrate, 1536-well (AID 1619). It is filed as functional.

In a further assay the target is Procathepsin L (Homo sapiens, UniProt P07711). The experiment in a line: CTSL1 protease inhibition – biochemical, QFRET, 1536-well, counter-screen for M1/M17 aminopeptidase inhibitor project, dose response (AID 2214).
Procathepsin L, sequence (P07711 whole entry): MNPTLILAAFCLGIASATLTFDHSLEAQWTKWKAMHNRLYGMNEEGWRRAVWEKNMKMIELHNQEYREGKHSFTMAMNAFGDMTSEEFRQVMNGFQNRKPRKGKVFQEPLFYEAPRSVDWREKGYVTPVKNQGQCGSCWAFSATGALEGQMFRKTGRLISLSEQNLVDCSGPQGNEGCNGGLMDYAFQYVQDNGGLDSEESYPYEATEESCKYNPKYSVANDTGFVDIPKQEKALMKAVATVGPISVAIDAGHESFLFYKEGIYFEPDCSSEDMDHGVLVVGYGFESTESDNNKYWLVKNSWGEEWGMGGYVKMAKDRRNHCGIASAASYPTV
Assay [1] has as its target T4, Replicative DNA helicase DnaB (Mycobacterium tuberculosis, UniProt P9WMR3).
T4 sequence (P9WMR3 whole entry): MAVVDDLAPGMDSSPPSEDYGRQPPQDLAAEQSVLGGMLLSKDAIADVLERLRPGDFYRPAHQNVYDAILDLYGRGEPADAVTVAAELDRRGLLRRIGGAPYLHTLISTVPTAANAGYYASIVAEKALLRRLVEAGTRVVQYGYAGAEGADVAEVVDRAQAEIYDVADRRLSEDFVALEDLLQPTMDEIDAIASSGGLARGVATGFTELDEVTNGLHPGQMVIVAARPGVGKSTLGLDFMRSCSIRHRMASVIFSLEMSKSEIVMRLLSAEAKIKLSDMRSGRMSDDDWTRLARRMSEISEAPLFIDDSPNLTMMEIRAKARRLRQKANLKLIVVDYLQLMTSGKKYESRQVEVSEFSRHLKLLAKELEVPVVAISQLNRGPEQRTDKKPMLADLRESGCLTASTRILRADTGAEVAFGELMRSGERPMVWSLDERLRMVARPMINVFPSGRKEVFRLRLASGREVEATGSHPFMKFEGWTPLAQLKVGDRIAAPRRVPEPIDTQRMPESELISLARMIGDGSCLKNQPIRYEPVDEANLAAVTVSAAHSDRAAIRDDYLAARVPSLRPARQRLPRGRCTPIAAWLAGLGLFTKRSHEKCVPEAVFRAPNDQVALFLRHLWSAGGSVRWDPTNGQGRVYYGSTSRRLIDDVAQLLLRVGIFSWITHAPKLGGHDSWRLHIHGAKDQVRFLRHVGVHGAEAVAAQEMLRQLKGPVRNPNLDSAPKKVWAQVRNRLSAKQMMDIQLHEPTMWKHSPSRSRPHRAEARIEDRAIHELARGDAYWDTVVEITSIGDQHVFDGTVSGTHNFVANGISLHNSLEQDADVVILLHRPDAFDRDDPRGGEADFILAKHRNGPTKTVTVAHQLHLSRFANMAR
The experiment in a line: DnaB intein splicing inhibitors, dose response, biochemical, cell-free fluorescence (AID 449749). Type of assay: functional.

The subject of the next assay is HT-1080. In words: HT1080 cell viability loss – fluorescence readout (AID 620). It is filed as functional, cell-based. As to conditions: Homo sapiens.
For assay [2], the target named is T5, Estrogen receptor beta (Homo sapiens, UniProt Q92731).
T5 sequence (Q92731 whole entry): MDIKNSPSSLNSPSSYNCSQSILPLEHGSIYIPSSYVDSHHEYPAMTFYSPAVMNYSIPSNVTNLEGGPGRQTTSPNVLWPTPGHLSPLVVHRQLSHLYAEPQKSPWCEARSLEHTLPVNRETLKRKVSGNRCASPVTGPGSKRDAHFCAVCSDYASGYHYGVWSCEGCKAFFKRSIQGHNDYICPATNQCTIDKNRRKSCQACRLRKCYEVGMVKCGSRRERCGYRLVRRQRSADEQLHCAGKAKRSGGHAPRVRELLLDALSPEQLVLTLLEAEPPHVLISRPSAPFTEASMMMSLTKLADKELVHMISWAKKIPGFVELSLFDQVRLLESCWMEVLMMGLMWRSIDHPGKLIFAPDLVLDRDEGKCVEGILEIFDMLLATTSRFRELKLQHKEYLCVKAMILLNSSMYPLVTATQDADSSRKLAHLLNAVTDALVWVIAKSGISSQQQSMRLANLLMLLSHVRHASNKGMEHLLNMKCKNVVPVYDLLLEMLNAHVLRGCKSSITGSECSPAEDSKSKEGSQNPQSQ
The target in assay [3] is T5, Estrogen receptor beta. In words: blockers of SRC-3 recruitment to ERβ – biochemical, ELISA, streptavidin-HRP readout, orthogonal assay, confirmation (AID 1060).
Assay [4] concerns the target E3 ubiquitin-protein ligase Mdm2 (Homo sapiens, UniProt Q00987). In words: MDM2-luc reporter signal enhancers, multi-concentration potency testing, MDM2 ubiquitin-protein ligase inhibitor program, whole-cell format, luminescence detection, 384-well microplate (AID 1394).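 Further: MDM2 E3 inhibitors raise luminescence so EC50 is for signal enhancement.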 It is filed as functional.
Another assay concerns Vero. In words: cells. It is filed as functional. The following applies: Chlorocebus sabaeus.
Assay [5] is described as follows: decrease of insulin promoter-GFP reporter – imaging, high-content screening, mouse beta cells (AID 1628). Type of assay: functional. The following applies: MIN6.
For assay [6], the target named is T6, Nuclear receptor subfamily 0 group B member 1 (Homo sapiens, UniProt P51843).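 Further: HEK293T cells transfected with SF-1 and DAX-1 plus StAR promoter luciferase reporter.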
T6 sequence (P51843 whole entry): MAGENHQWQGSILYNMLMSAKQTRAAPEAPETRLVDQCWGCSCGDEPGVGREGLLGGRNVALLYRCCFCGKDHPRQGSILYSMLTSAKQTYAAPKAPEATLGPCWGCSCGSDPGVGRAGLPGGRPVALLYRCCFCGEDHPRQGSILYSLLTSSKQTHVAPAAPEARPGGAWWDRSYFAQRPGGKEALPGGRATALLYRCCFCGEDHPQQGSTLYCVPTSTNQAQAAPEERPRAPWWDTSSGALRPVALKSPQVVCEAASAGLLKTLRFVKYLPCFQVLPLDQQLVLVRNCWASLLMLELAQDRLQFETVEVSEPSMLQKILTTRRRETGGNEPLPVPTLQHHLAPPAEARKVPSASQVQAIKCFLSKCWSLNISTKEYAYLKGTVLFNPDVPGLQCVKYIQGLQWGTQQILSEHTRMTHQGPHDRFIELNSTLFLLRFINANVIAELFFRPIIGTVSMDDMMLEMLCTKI
It is filed as functional, cell-based.

Assay [7] in a line: MIN6 cell viability loss – mouse insulinoma, cytotoxicity control, dose response (AID 2122).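 Further: confirmatory high-throughput counterscreen run to flag cytotoxic compounds.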 It is filed as functional.
Assay [8] can be described thus: Luminescence Cell-Based Dose Retest to Confirm Inhibitors of Cancer Stem Cells. [Related pubchem assays (depositor defined):AID2717, AID2721]. It is filed as functional. The following applies: Homo sapiens.
Assay [9] can be described thus: viability of uninfected HEp-2 cells – cell-based, HTS, cytotoxicity control for RSV inhibitor project, dose response (AID 2410). Type of assay: functional. As to conditions: human respiratory syncytial virus.
Assay [10] in a line: cells. Type of assay: functional, cell-based.
Assay [11] in a line: Trypanosoma cruzi growth suppression in host cells – NIH3T3 host cells, beta-gal luminescence, confirmation (AID 2044).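 Further: intracellular parasites grown in NIH/3T3 mouse fibroblasts as host cells; luminescent beta-galactosidase reporter signal from transgenic T. cruzi replicating inside host cells; inhibitors lower the luminescence signal.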 It is filed as functional, cell-based.
Assay [12] has as its target T7, Sentrin-specific protease 8 (Homo sapiens, UniProt Q96LD8).
T7 sequence (Q96LD8 whole entry): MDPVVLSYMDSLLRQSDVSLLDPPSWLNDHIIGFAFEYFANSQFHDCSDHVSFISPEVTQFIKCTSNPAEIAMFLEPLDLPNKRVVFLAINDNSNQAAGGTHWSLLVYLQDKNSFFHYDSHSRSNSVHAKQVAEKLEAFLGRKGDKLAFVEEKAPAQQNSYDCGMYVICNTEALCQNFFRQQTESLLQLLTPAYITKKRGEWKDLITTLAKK
It is filed as functional.

Assay [13] in a line: NIH3T3 cell viability loss – ATP luminescence, mouse fibroblasts, counter-screen, dose response (AID 2010).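 Further: cells exposed to compound for about 90 hours before reading.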 It is filed as functional, cell-based.
Assay [14] addresses T7, Sentrin-specific protease 8. It is filed as functional. This is another data set of the same source.
Assay [15] can be described thus: cells.
The next assay addresses Nonstructural protein 1 (Influenza A virus, UniProt Q194T2). It is filed as functional, Influenza A virus (A/California/07/2009(H1N1)).

Activity calls are given as the source filed them.

Nonstructural protein 1, sequence (Q194T2 whole entry): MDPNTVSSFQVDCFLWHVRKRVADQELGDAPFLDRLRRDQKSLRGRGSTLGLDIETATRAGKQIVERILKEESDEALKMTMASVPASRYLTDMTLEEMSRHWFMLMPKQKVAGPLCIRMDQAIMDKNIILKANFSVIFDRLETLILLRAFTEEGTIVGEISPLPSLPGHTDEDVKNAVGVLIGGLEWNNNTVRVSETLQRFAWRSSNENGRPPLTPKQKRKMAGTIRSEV
E3 ubiquitin-protein ligase Mdm2, sequence (Q00987 whole entry): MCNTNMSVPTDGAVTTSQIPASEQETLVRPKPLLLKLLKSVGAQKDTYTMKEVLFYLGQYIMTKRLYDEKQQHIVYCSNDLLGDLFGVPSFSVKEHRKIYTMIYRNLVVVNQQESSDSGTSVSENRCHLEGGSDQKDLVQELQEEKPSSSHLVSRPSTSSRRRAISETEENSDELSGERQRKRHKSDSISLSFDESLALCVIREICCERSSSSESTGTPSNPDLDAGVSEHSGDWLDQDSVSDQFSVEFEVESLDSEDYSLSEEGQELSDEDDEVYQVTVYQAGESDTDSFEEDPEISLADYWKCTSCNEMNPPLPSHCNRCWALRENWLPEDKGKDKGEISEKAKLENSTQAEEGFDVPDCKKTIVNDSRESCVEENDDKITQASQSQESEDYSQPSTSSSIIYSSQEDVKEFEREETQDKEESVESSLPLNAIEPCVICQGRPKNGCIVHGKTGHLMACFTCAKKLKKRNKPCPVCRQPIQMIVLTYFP

With `O=c1cc(-c2ccc(F)cc2)[nH][nH]1`, the figures for the IC50 on Aspartyl aminopeptidase, on Leucine aminopeptidase and on Procathepsin L were > 73.5 µM (not active), 1.13 µM (active) and > 59.6 µM (not active), respectively. Moreover, the EC50 on Protein RecA is 0.548 µM (active). Further, in assay [1], the AC50 was 1.79 µM (active).

With `Cc1ccc(Nc2nnc(SC3CCOC3=O)s2)c(C)c1` (centres undefined), the IC50 at Aspartyl aminopeptidase was > 73.5 µM (not active); at Leucine aminopeptidase, 2.57 µM (active); at Procathepsin L, > 59.6 µM (not active).

On to `Cc1ccc(NC2=Nc3ccccc3CC2)cc1`, for which, in the assay with HT-1080, the EC50 is > 50 µM (not active).

In the case of `COCc1cc(O)n2c(-c3ccc(C)cc3)nnc2n1`, the IC50 is 17.5 µM (active) on Estrogen receptor beta [2] and 1.03 µM (not active) on Estrogen receptor beta [3].

With `COc1ccc(/C=C/C(=O)Nc2ccc(C34CC5CC(CC(O)(C5)C3)C4)cc2)cc1OC`, the concentration giving a half-maximal response (EC50) in [4] is recorded as 3.12 µM (not active). Also, the half-maximal cytotoxic concentration (CC50) in the assay on Vero was 20.9 µM (active); in assay [9], 1.48 µM (active). For the same molecule, the half-inhibitory concentration (IC50) is 2.17 µM (active) in assay [5], > 0.834 µM (active) in assay [6], 5.21 µM (active) in assay [7] and > 67.5 µM (inactive) in the assay “cells [10]”. Also, the AC50 in [8] is 0.647 µM (active).

For `CN(C)CCN(C(=O)c1ccc(N2C(=O)CCC2=O)cc1)c1nc2cc3c(cc2s1)OCO3`, the results for the EC50 (in assay [11]; in [13]; in “cells [15]”) were < 0.1 µM (active), > 60 µM (not active) and 0.102 µM (active), respectively. In addition, the figures for the IC50 in assay [12] and in assay [14] were 33.5 µM (active) and 24.4 µM (active), respectively.

For the molecule `CN(C)c1ccc(/N=C/c2ccco2)cc1`, the IC50 is 18.5 µM (active) at Estrogen receptor beta [2]; 3.55 µM (active) in assay [5]; 3.61 µM (active) in assay [7]; 0.048 µM (not active) at Estrogen receptor beta [3]; 16.6 µM (active) on Nonstructural protein 1.

As usually defined, the IC50 is the concentration that gives 50% inhibition. A word on the EC50: it is the concentration giving half of the maximal effect. The AC50 is the concentration at which the activity in the assay is half-maximal. The term CC50 denotes the concentration that lowers cell viability or growth by half.
